Reference: ChEMBL document CHEMBL5241101, “Plant isoquinoline alkaloids: Advances in the chemistry and biology of berberine” (Eur J Med Chem, 2021)

Key:
[1] = system: HL-60; experiment: Antiproliferative activity against human HL-60 cells incubated for 96 hrs by MTT assay; format: functional, cell-based; details: HL-60, 96 h
[2] = system: Caco-2; experiment: Antiproliferative activity against human Caco-2 cells incubated for 96 hrs by MTT assay; format: functional, cell-based; details: Caco-2, 96 h
[3] = system: AGS; experiment: Cytotoxicity against human AGS cells assessed as cell growth inhibition incubated for 48 hrs by WST-1 assay; format: functional, cell-based
[4] = system: COLO 201; experiment: Cytotoxicity against human COLO201 cells assessed as cell growth inhibition incubated for 48 hrs by WST-1 assay; format: functional, cell-based; details: COLO 201, 48 h
[5] = system: A2780; experiment: Cytotoxicity against human A2780 cells assessed as cell growth inhibition incubated for 48 hrs by WST-1 assay; format: functional, cell-based; details: A2780, 48 h
[6] = system: Jurkat; experiment: Cytotoxicity against human Jurkat cells assessed as cell growth inhibition incubated for 48 hrs by WST-1 assay; format: functional, cell-based
[7] = system: A549; experiment: Cytotoxicity against human A549 cells assessed as cell growth inhibition incubated for 48 hrs by WST-1 assay; format: functional, cell-based; details: A549, 48 h
[8] = system: MCF7; experiment: Cytotoxicity against human MCF7 cells assessed as cell growth inhibition incubated for 48 hrs by WST-1 assay; format: functional, cell-based; details: MCF7, 48 h
[9] = system: HL-60; experiment: Cytotoxicity against human HL-60 cells assessed as cell growth inhibition incubated for 48 hrs by WST-1 assay; format: functional, cell-based; details: HL-60, 48 h
[10] = system: BT-549; experiment: Cytotoxicity against human BT-549 cells assessed as cell growth inhibition incubated for 48 hrs by WST-1 assay; format: functional, cell-based; details: BT-549, 48 h
[11] = system: HT-29; experiment: Cytotoxicity against human HT-29 cells assessed as cell growth inhibition incubated for 48 hrs by WST-1 assay; format: functional, cell-based; details: HT-29, 48 h
[12] = system: Plasmodium falciparum; experiment: Antimalarial activity against chloroquine resistant Plasmodium falciparum K1 assessed as inhibition of parasite growth incubated for 72 hrs by [3H]-hypoxanthine incorporation assay based liquid scintillation counter; format: functional, organism-based
[13] = system: Plasmodium falciparum; experiment: Antimalarial activity against chloroquine sensitive Plasmodium falciparum NF54 assessed as inhibition of parasite growth incubated for 72 hrs by [3H]-hypoxanthine incorporation assay based liquid scintillation counter; format: functional, organism-based
[14] = system: Jurkat; experiment: Cytotoxicity against human Jurkat cells assessed as cell growth inhibition incubated for 48 hrs by XTT assay; format: functional, cell-based
[15] = system: MOLT-4; experiment: Cytotoxicity against human MOLT-4 cells assessed as cell growth inhibition incubated for 48 hrs by XTT assay; format: functional, cell-based; details: MOLT-4, 48 h
[16] = system: HL-60; experiment: Cytotoxicity against human HL-60 cells assessed as cell growth inhibition incubated for 48 hrs by XTT assay; format: functional, cell-based; details: HL-60, 48 h
[17] = system: A549; experiment: Cytotoxicity against human A549 cells assessed as cell growth inhibition incubated for 72 hrs by MTT assay; format: functional, cell-based; details: A549, 72 h
[18] = system: K562; experiment: Cytotoxicity against human K562 cells assessed as cell growth inhibition incubated for 72 hrs by MTT assay; format: functional, cell-based; details: K562, 72 h
[19] = Oral bioavailability in Wistar rat at 100 mg/kg by UPLC-MS/MS analysis; format: ADME, organism-based; details: in vivo
[20] = system: HaCaT; experiment: Induction of DNA damage in human HaCaT cells assessed as fold change at 50 uM in presence of UV radiation by comet assay; format: toxicity, cell-based
[21] = Toxicity in Sprague-Dawley rat assessed as LOAEL by po administrated gestational day upto 20 days; format: organism-based; details: in vivo, 480 h, time < 20 day
[22] = system: HaCaT; experiment: Cytotoxicity against human HaCaT cells assessed as decrease in cell viability at 50 uM incubated for 1 hr in presence of UV radiation by CellTiter-96 assay; format: toxicity, cell-based
[23] = Toxicity in Sprague-Dawley rat assessed as NOAEL by po administrated gestational day upto 20 days; format: organism-based; details: in vivo, time < 20 day

With `COC(=O)c1ccc(OC)c(OC)c1NC(=O)c1cc(C/C=C(\C)c2c3[n+](cc4c(OC)c(OC)ccc24)CCc2cc4c(cc2-3)OCO4)c2c(c1)OCO2` the IC50 [1] was 10200 nM and the IC50 [2] was 9240 nM.
`CO[C@@H]1C=C[C@@]23c4cc5c(cc4CN(C[C@@H]2O)[C@H]3C1)OCO5` [(+)-HAEMANTHAMINE] gave an IC50 [3] of 300 nM, an IC50 [4] of 300 nM and an IC50 [5] of 300 nM. It also gave an IC50 [6] of 300 nM, an IC50 [7] of 300 nM and an IC50 [8] of 300 nM. For the same compound, the IC50 [9] was 300 nM, the IC50 [10] was 300 nM and the IC50 [11] was 300 nM.
Compound `COc1cc(O)c(-c2cc(-c3cc(-c4c(O)cc5c(c4OC)[C@@H](C)N[C@H](C)C5)c4cc(C)cc(OC)c4c3O)c(O)c3c(OC)cc(C)cc23)c2c1[C@H](C)N[C@H](C)C2` has an IC50 [12] of 452 nM and an IC50 [13] of 418 nM.
`COc1ccc2c(c1OC)CN(C)[C@@H]1c3cc4c(cc3C[C@H](O)[C@H]21)OCO4` gave an IC50 [14] of 4800 nM, an IC50 [15] of 4800 nM and an IC50 [16] of 4800 nM.
In the case of `CO[C@@H]1C=C[C@@]23c4cc5c(cc4[C@H](O)N(C[C@@H]2O)[C@H]3C1)OCO5`, the IC50 [3] is reported as 300 nM, the IC50 [4] is reported as 300 nM and the IC50 [5] is reported as 300 nM. For the same compound, the IC50 [6] was 300 nM, the IC50 [7] was 300 nM and the IC50 [8] was 300 nM. For the same compound, the IC50 [9] was 300 nM, the IC50 [10] was 300 nM and the IC50 [11] was 300 nM.
Compound `COc1cc(O)c(-c2cc(-c3cc(-c4c(O)cc5c(c4OC)[C@H](C)N[C@H](C)C5)c4cc(C)cc(OC)c4c3O)c(O)c3c(OC)cc(C)cc23)c2c1[C@H](C)N[C@H](C)C2` has an IC50 [13] of 34 nM.
`O[C@H]1/C=C\[C@H]2C[C@]34CN5CCCC/C=C\CC[C@](O)(C=C(c6nccc7c6[nH]c6ccccc67)[C@@H]3CC5)[C@@H]4N2CCC1` showed an IC50 [17] of 5800 nM and an IC50 [18] of 5200 nM.
In the case of `O[C@]12C=C(c3nccc4c3[nH]c3ccccc34)[C@@H]3CCN(CCCC/C=C\CC1)C[C@@]31C[C@@H]3/C=C\CCCCN3[C@H]12` [MANZAMINE A], the IC50 [17] is reported as 5800 nM and the IC50 [18] is reported as 5200 nM.
For `[O-][N+]1=C([C@H]2[C@@H]3CCN4CCCC/C=C\CC[C@@]5(O[C@@H]25)[C@@H]2NCCCC/C=C\CC[C@@]23C4)c2[nH]c3ccccc3c2CC1`, the IC50 [17] was 5800 nM and the IC50 [18] was 5200 nM.
Compound `O[C@H]1[C@H]2c3cc4c(cc3CN3CCC(=C[C@@H]1O)[C@H]23)OCO4` [LYCORINE] has an IC50 [3] of 300 nM, an IC50 [4] of 300 nM and an IC50 [5] of 300 nM. It also gave an IC50 [6] of 300 nM, an IC50 [7] of 300 nM and an IC50 [8] of 300 nM. The IC50 [9] was 300 nM, the IC50 [10] was 300 nM and the IC50 [11] was 300 nM.
With `C1=C\CC[C@]23CN4CCCC/C=C\CC[C@@]5(O[C@H]5[C@@H](c5nccc6c5[nH]c5ccccc56)[C@@H]2CC4)[C@@H]3NCCCC/1` [MANZAMINE B] the IC50 [17] was 5800 nM and the IC50 [18] was 5200 nM.
Work on `COc1cc(O)c(-c2cc(-c3cc(-c4c(O)cc5c(c4OC)[C@H](C)N[C@H](C)C5)c4cc(C)cc(OC)c4c3O)c(O)c3c(OC)cc(C)cc23)c2c1[C@@H](C)N[C@H](C)C2` yielded an IC50 [12] of 138 nM and an IC50 [13] of 210 nM.
`[O-][n+]1ccc2c([nH]c3ccccc32)c1[C@H]1[C@@H]2CCN3CCCC/C=C\CC[C@@]4(O[C@@H]14)[C@@H]1NCCCC/C=C\CC[C@@]12C3` showed an IC50 [17] of 5800 nM and an IC50 [18] of 5200 nM.
In the case of `COc1ccc2cc3[n+](cc2c1OC)CCc1cc2c(cc1-3)OCO2` [BERBERINE], the bioavailability [19] is reported as 0.36%, the “fold change (FC)” value [20] is reported as 3 and the LOAEL [21] is reported as 1313 mg/kg. It also gave an Activity [22] of 80% and an NOAEL at 480 h [23] of 420 mg/kg.
In the case of `CN1Cc2c(ccc3c2OCO3)[C@@H]2[C@H]1c1cc3c(cc1C[C@@H]2O)OCO3` [CHELIDONINE], the IC50 [14] is reported as 2200 nM, the IC50 [15] is reported as 2200 nM and the IC50 [16] is reported as 2200 nM.
Compound `O[C@@H]1CCCN2[C@@H](CC1)C[C@]13CN4CCCC/C=C\CC[C@](O)(C=C(c5nccc6c5[nH]c5ccccc56)[C@@H]1CC4)[C@H]23` [32,33-DIHYDRO-31-HYDROXYMANZAMINE A] has an IC50 [17] of 5800 nM and an IC50 [18] of 5200 nM.
`O[C@]12C=C(c3nccc4c3[nH]c3ccccc34)[C@@H]3CCN(CCCC/C=C\CC1)C[C@@]31C[C@@H]3C=C[C@H]4CCC[N@+]43[C@H]12` gave an IC50 [17] of 5800 nM and an IC50 [18] of 5200 nM.
Compound `O[C@]12C=C(c3nccc4c3[nH]c3ccccc34)[C@@H]3CCN(CCCC/C=C\CC1)C[C@@]31C[C@@]34CC[C@@H](CCCN3[C@H]12)O4` has an IC50 [17] of 5800 nM and an IC50 [18] of 5200 nM.
`O[C@H]1[C@@H](c2nccc3c2[nH]c2ccccc23)[C@@H]2CCN3CCCC/C=C\CC[C@@]1(O)[C@@H]1NCCCC/C=C\CC[C@]21C3` gave an IC50 [17] of 5800 nM and an IC50 [18] of 5200 nM.
